Source: PubChem BioAssay (NCI)
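In this assay, cells in 96-well plates receive the compound at five concentrations for 48 hours. Endpoints are linearly interpolated between the surrounding concentrations. GI50 is the concentration that inhibits growth by half. TGI: concentration producing complete growth inhibition.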

Assays:
Assay in all cases: growth of human tumour cells (NCI), 48 h
[1] = tested on: 786-0 renal
[2] = tested on: A498 renal
[3] = tested on: A549 NSCLC
[4] = tested on: ACHN renal
[5] = tested on: BT-549 breast
[6] = tested on: CAKI-1 renal
[7] = tested on: CCRF-CEM leukemia
[8] = tested on: COLO 205 colon
[9] = tested on: DU-145 prostate
[10] = tested on: EKVX NSCLC
[11] = tested on: HCC-2998 colon
[12] = tested on: HCT-116 colon
[13] = tested on: HCT-15 colon
[14] = tested on: HL-60(TB) leukemia
[15] = tested on: HOP-62 NSCLC
[16] = tested on: HOP-92 NSCLC
[17] = tested on: HS 578T breast
[18] = tested on: HT29 colon
[19] = tested on: IGROV1 ovarian
[20] = tested on: K-562 leukemia
[21] = tested on: KM12 colon
[22] = tested on: LOX IMVI melanoma
[23] = tested on: M14 melanoma
[24] = tested on: MALME-3M melanoma
[25] = tested on: MCF7 breast
[26] = tested on: MDA-MB-231 breast
[27] = tested on: MDA-MB-435
[28] = tested on: MDA-MB-468 breast
[29] = tested on: MOLT-4 leukemia
[30] = tested on: NCI-H226 lung
[31] = tested on: NCI-H23 lung
[32] = tested on: NCI-H460 lung
[33] = tested on: NCI-H522 lung
[34] = tested on: OVCAR-3 ovarian
[35] = tested on: OVCAR-4 ovarian
[36] = tested on: OVCAR-5 ovarian
[37] = tested on: OVCAR-8 ovarian
[38] = tested on: PC-3 prostate
[39] = tested on: RPMI-8226 leukemia
[40] = tested on: RXF 393 renal
[41] = tested on: SF-268 CNS
[42] = tested on: SF-295 CNS
[43] = tested on: SF-539 CNS
[44] = tested on: SK-MEL-28 melanoma
[45] = tested on: SK-MEL-5 melanoma
[46] = tested on: SK-OV-3 ovarian
[47] = tested on: SN12C renal
[48] = tested on: SNB-19 CNS
[49] = tested on: SNB-75 CNS
[50] = tested on: SR leukemia
[51] = tested on: SW-620 colon
[52] = tested on: T-47D breast
[53] = tested on: TK-10 renal
[54] = tested on: U251 CNS
[55] = tested on: UACC-257 melanoma
[56] = tested on: UACC-62 melanoma
[57] = tested on: UO-31 renal
[58] = tested on: NCI/ADR-RES ovarian
[59] = tested on: SK-MEL-2 melanoma

For `CC1(C)CC[C@]2(C(=O)Nc3ccc(F)cc3)CC[C@]3(C)C(=CCC4[C@@]5(C)C[C@@H](O)[C@H](O)[C@@](C)(CO)C5CC[C@]43C)C2C1` (stereo not given in full), the GI50 [1] was 15.5 µM, the TGI [1] was 30.4 µM and the GI50 [2] was 20.8 µM. The TGI [2] was 45.6 µM, the GI50 [3] was 29.5 µM and the TGI [3] was greater than 100 µM. The GI50 [4] was 14.8 µM, the TGI [4] was 28.1 µM and the GI50 [5] was 13.1 µM. For the same compound, the TGI [5] was 26.8 µM, the GI50 [6] was 11.1 µM and the TGI [6] was 39.6 µM. For the same compound, the GI50 [7] was 20 µM, the TGI [7] was 90.6 µM and the GI50 [8] was 16.7 µM. It also gave a TGI [8] of 33.6 µM, a GI50 [9] of 20.1 µM and a TGI [9] of 45.6 µM. The GI50 [10] was 17.2 µM, the TGI [10] was 47.2 µM and the GI50 [11] was 16.7 µM. It also gave a TGI [11] of 31.1 µM, a GI50 [12] of 13.1 µM and a TGI [12] of 26 µM. For the same compound, the GI50 [13] was 13.2 µM, the TGI [13] was 27.4 µM and the GI50 [14] was 14.2 µM. The TGI [14] was 38.8 µM, the GI50 [15] was 18.8 µM and the TGI [15] was 43.5 µM. For the same compound, the GI50 [16] was 13.2 µM, the TGI [16] was 29 µM and the GI50 [17] was 20.5 µM. It also gave a TGI [17] of 76.9 µM, a GI50 [18] of 15.6 µM and a TGI [18] of 30.5 µM. It also gave a GI50 [19] of 15.8 µM, a TGI [19] of 34.1 µM and a GI50 [20] of 17.8 µM. It also gave a TGI [20] of 62.8 µM, a GI50 [21] of 17.5 µM and a TGI [21] of 35.7 µM. For the same compound, the GI50 [22] was 15.6 µM, the TGI [22] was 30.7 µM and the GI50 [23] was 15.7 µM. It also gave a TGI [23] of 31.5 µM, a GI50 [24] of 16 µM and a TGI [24] of 29.9 µM. The GI50 [25] was 13 µM, the TGI [25] was 29.5 µM and the GI50 [26] was 14.2 µM. It also gave a TGI [26] of 28.7 µM, a GI50 [27] of 14.4 µM and a TGI [27] of 28.8 µM. For the same compound, the GI50 [28] was 13.5 µM, the TGI [28] was 31.3 µM and the GI50 [29] was 7.51 µM. It also gave a TGI [29] of 30.6 µM, a GI50 [30] of 13.5 µM and a TGI [30] of 34.3 µM. The GI50 [31] was 17.9 µM, the TGI [31] was 39.3 µM and the GI50 [32] was 15.4 µM. It also gave a TGI [32] of 33.8 µM, a GI50 [33] of 17.6 µM and a TGI [33] of 40.1 µM. For the same compound, the GI50 [34] was 16.3 µM, the TGI [34] was 31.2 µM and the GI50 [35] was 16.8 µM. For the same compound, the TGI [35] was 46.5 µM, the GI50 [36] was 14.6 µM and the TGI [36] was 28.4 µM. It also gave a GI50 [37] of 29 µM, a TGI [37] greater than 100 µM and a GI50 [38] of 12.8 µM. It also gave a TGI [38] of 38.5 µM, a GI50 [39] of 14.9 µM and a TGI [39] of 64.6 µM. The GI50 [40] was 10.9 µM, the TGI [40] was 23.3 µM and the GI50 [41] was 22.6 µM. The TGI [41] was 89 µM, the GI50 [42] was 13.9 µM and the TGI [42] was 28.6 µM. The GI50 [43] was 14.8 µM, the TGI [43] was 28.3 µM and the GI50 [44] was 15.6 µM. The TGI [44] was 31.6 µM, the GI50 [45] was 14.7 µM and the TGI [45] was 27.8 µM. It also gave a GI50 [46] of 20.3 µM, a TGI [46] of 51 µM and a GI50 [47] of 14.8 µM. For the same compound, the TGI [47] was 29.6 µM, the GI50 [48] was 23.8 µM and the TGI [48] was greater than 100 µM. For the same compound, the GI50 [49] was 13.5 µM, the TGI [49] was 61 µM and the GI50 [50] was 10.3 µM. The TGI [50] was 37.3 µM, the GI50 [51] was 25.8 µM and the TGI [51] was greater than 100 µM. The GI50 [52] was 12.9 µM, the TGI [52] was 32.1 µM and the GI50 [53] was 22.8 µM. For the same compound, the TGI [53] was 54.1 µM, the GI50 [54] was 14.9 µM and the TGI [54] was 30 µM. The GI50 [55] was 18.4 µM, the TGI [55] was 47.9 µM and the GI50 [56] was 9.17 µM. The TGI [56] was 21.9 µM, the GI50 [57] was 12.8 µM and the TGI [57] was 29.2 µM.
In the case of `NS(=O)(=O)c1ccc(-n2cc(-c3cccc(NC(=O)c4ccc(Cl)c(C(F)(F)F)c4)c3)nn2)cc1`, the GI50 [13] is reported as 7.8 µM, the TGI [13] is reported as 68.5 µM and the GI50 [29] is reported as 3.1 µM. It also gave a TGI [29] greater than 100 µM, a GI50 [58] of 80.7 µM and a TGI [58] greater than 100 µM. For the same compound, the GI50 [50] was 3.9 µM and the TGI [50] was greater than 100 µM.
Work on `CC1=C2C(=C[C@@](C)(CO)[C@@H]2O)/C(=N\N)[C@](C)(O)C12CC2` yielded a GI50 [1] of 2.97 µM, a TGI [1] of 9.08 µM and a GI50 [3] of 2.39 µM. It also gave a TGI [3] of 22.8 µM, a GI50 [4] of 0.86 µM and a TGI [4] of 5.18 µM. It also gave a GI50 [5] of 1.69 µM, a TGI [5] of 4.43 µM and a GI50 [6] of 2.44 µM. It also gave a TGI [6] greater than 100 µM, a GI50 [7] of 2.93 µM and a TGI [7] greater than 100 µM. The GI50 [8] was 1.65 µM, the TGI [8] was 3.65 µM and the GI50 [9] was 0.812 µM. The TGI [9] was 30.5 µM, the GI50 [10] was 2.17 µM and the TGI [10] was 5.52 µM. It also gave a GI50 [11] of 1.79 µM, a TGI [11] of 3.77 µM and a GI50 [12] of 1.33 µM. For the same compound, the TGI [12] was greater than 100 µM, the GI50 [13] was 1.54 µM and the TGI [13] was greater than 100 µM. The GI50 [14] was 1.44 µM, the TGI [14] was 8.87 µM and the GI50 [15] was 2.23 µM. The TGI [15] was 5.32 µM, the GI50 [16] was 2.54 µM and the TGI [16] was 6.75 µM. It also gave a GI50 [17] of 2.88 µM, a TGI [17] of 9.44 µM and a GI50 [18] of 1.94 µM. The TGI [18] was 8.75 µM, the GI50 [19] was 2.39 µM and the TGI [19] was 7.62 µM. For the same compound, the GI50 [20] was 2.02 µM, the TGI [20] was greater than 100 µM and the GI50 [21] was 2.98 µM. It also gave a TGI [21] greater than 100 µM, a GI50 [22] of 1.62 µM and a TGI [22] of 4.99 µM. For the same compound, the GI50 [24] was 1.7 µM, the TGI [24] was 3.25 µM and the GI50 [25] was 0.405 µM. For the same compound, the TGI [25] was greater than 100 µM, the GI50 [26] was 2.25 µM and the TGI [26] was 6.52 µM. For the same compound, the GI50 [27] was 2.23 µM, the TGI [27] was 5.58 µM and the GI50 [28] was 0.977 µM. It also gave a TGI [28] of 2.77 µM, a GI50 [29] of 2.4 µM and a TGI [29] greater than 100 µM. The GI50 [30] was 2.11 µM, the TGI [30] was 7.44 µM and the GI50 [31] was 1.08 µM. For the same compound, the TGI [31] was 2.9 µM, the GI50 [32] was 0.42 µM and the TGI [32] was 6.63 µM. For the same compound, the GI50 [33] was 1.19 µM, the TGI [33] was 3.64 µM and the GI50 [34] was 2.63 µM. It also gave a TGI [34] of 7.05 µM, a GI50 [35] of 2.44 µM and a TGI [35] of 7.16 µM. For the same compound, the GI50 [36] was 0.518 µM, the TGI [36] was 33.8 µM and the GI50 [37] was 1.86 µM. For the same compound, the TGI [37] was 5.12 µM, the GI50 [38] was 2.55 µM and the TGI [38] was 15.3 µM. The GI50 [39] was greater than 100 µM, the TGI [39] was greater than 100 µM and the GI50 [40] was 1.51 µM. The TGI [40] was 3.26 µM, the GI50 [41] was 2.66 µM and the TGI [41] was 21.8 µM. The GI50 [42] was 1.74 µM, the TGI [42] was greater than 100 µM and the GI50 [43] was 1.85 µM. The TGI [43] was 3.83 µM, the GI50 [59] was 1.77 µM and the TGI [59] was 3.33 µM. It also gave a GI50 [44] of 2.04 µM, a TGI [44] of 4.11 µM and a GI50 [46] of 2.91 µM. For the same compound, the TGI [46] was 7.87 µM, the GI50 [47] was 2.33 µM and the TGI [47] was 6.66 µM. It also gave a GI50 [48] of 2.51 µM, a TGI [48] of 8.67 µM and a GI50 [49] of 1.36 µM. It also gave a TGI [49] of 4.82 µM, a GI50 [50] of 2.12 µM and a TGI [50] greater than 100 µM. For the same compound, the GI50 [52] was 2.2 µM, the TGI [52] was 6.71 µM and the GI50 [53] was 3.1 µM. For the same compound, the TGI [53] was 9.25 µM, the GI50 [54] was 0.416 µM and the TGI [54] was greater than 100 µM. It also gave a GI50 [55] of 2.25 µM, a TGI [55] of 5.19 µM and a GI50 [56] of 1.74 µM. It also gave a TGI [56] of 3.23 µM, a GI50 [57] of 1.65 µM and a TGI [57] of 4.66 µM.
